The values that follow come from US20070197590A1, “SUBSTITUTED DIPIPERIDINE CCR2 ANTAGONISTS” (priority 2006, published 2007).

The target in one assay is T1, CCR2 (Homo sapiens, UniProt P41597).
T1 construct: host or cells: THP-1 cells
T1 sequence (P41597 1-360 isoform P41597-2): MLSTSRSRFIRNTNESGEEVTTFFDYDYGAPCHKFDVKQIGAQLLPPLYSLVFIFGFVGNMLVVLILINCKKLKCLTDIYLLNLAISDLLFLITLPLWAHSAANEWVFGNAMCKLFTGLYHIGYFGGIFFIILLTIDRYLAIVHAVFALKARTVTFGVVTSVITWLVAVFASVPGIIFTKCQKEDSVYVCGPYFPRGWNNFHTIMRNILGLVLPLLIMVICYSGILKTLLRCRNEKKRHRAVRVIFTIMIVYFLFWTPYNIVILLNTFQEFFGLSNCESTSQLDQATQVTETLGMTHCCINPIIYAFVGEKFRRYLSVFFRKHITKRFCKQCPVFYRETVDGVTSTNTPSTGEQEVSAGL
The assay can be described thus: MCP-1 Receptor Binding Assay in THP-1 Cells. The note with it: for pIC50: THP-1 cells, 0.5 nM 125I labeled MCP-1, 2 hours at 30° C., read-out: Inhibition of MCP-1 Binding IC50; for inhibition at 25 µM: test concentration of 25 μM, given where an IC50 value was not obtained, read-out: Inhibition of MCP-1 Binding, percent inhibition. Here is the method: THP-1 cells were obtained from American Type Culture Collection (Manassas, Va., USA). The THP-1 cells were grown in RPMI-1640 supplemented with 10% fetal bovine serum in a humidified 5% CO2 atmosphere at 37° C. The cell density was maintained […].
THP-1 cells were incubated with 0.5 nM ^125, labeled MCP-1 (Perkin-Elmer Life Sciences, Inc. Boston, Mass.) in the presence of varying concentrations of either unlabeled MCP-1 (R & D Systems, Minneapolis, Minn.) or test compound for 2 hours at 30° C. in a 96 well plate. Cells were then harvested onto a filter plate, dried, and 20 μL of Microscint 20 was added to each well. Plates were counted in a TopCount NXT, Microplate Scintillation & Luminescence Counter (Perkin-Elmer Life Sciences, Inc. Boston, Mass.). Blank values (buffer only) were subtracted from all values and drug treated values were compared to vehicle treated values. 1 μM cold MCP-1 was used for nonspecific binding.
Table 1 lists IC50 values for inhibition of MCP-1 binding to CCR2 obtained for test compounds of the invention.

The test system of assay [1] is MCP-1 induced calcium ion influx in THP-1 cells. As to the kind of experiment: MCP-1 Induced Calcium Mobilization in THP-1 Cells. The format is cell-based. The settings on record: 0.2 μM MCP-1, FLIPR, read-out: Inhibition of MCP-1 Induced Calcium Ion Influx IC50. Here is the method: THP-1 cells were plated at a density of 8×10^5 cells/mL (100 μL/well) into poly-D lysine coated clear bottom, black 96 well plates. The cells were loaded with 5 μM fluo-3 for 45 minutes. The fluo-3 washed off and cells were incubated with varying concentrations of test compound for 15 minutes. The change in calcium ion concentration upon addition of 0.2 μM MCP-1 was determined using FLIPR and compared to vehicle.
Table 2 lists IC50 values for inhibition of MCP-1 induced influx of calcium ions.
A general note: Calcium assays in cells follow changes in intracellular calcium, usually with a dye or a luminescent sensor.

[2] abbreviates: Homo sapiens, THP-1, THP-1 cells.

pIC50: −log10 of the molar value. Where two headings read alike, the source gives them in different places.

As a reminder, the pIC50 is −log10 of the IC50, conventionally taken in molar units. With “4-hydroxy-4-{1-hydroxy-2-hydroxy-2-[4-(1H-indol-3-yl)-piperidin-1-yl]-ethyl}-piperidine-1-carboxylic acid (3,5-difluoro-phenyl)-amide [Compound 81]”, the pIC50 at CCR2 is 5.59; in assay [1] (THP-1 cells), 5.74.
Take `COc1ccc(C2CCN(CC(CO)C3CCN(C(=O)/C=C/c4cccc(C)c4)CC3)CC2)cc1` (centres unmarked) [Compound 42]: the values for the pIC50 (on CCR2; in assay [1] (setting [2])) were 5.66 and 5.43, respectively.
With `COc1ccc(C2CCN(CC(O)C3CCN(C(=S)Nc4cccc(OC)c4)CC3)CC2)cc1` (centres unmarked) [Compound 96, 4-{1-hydroxy-2-[4-(4-methoxy-phenyl)-piperidin-1-yl]-ethyl}-piperidine-1-carbothioic acid (3-methoxy-phenyl)-amide], in assay [1] (THP-1 cells), the pIC50 was 4.88.
Still for that read-out and setting: as for `COc1ccc(C2CCN(CC(O)C3CCN(C(=S)Nc4cccc(C(F)(F)F)c4)CC3)CC2)cc1` (centres unmarked) [Compound 97, 4-{1-hydroxy-2-[4-(4-methoxy-phenyl)-piperidin-1-yl]-ethyl}-piperidine-1-carbothioic acid (3-trifluoromethyl-phenyl)-amide], the figure is 4.89.
On to `COc1ccc(C2CCN(CC(O)C3CCN(C(=S)Nc4ccc(Cl)c(Cl)c4)CC3)CC2)cc1` (centres unmarked) [Compound 98, 4-{1-hydroxy-2-[4-(4-methoxy-phenyl)-piperidin-1-yl]-ethyl}-piperidine-1-carbothioic acid (3,4-dichloro-phenyl)-amide], for which the pIC50 in assay [1] (setting [2]) is 6.10.
`COc1ccc(C2CCN(CC(O)C3CCN(C(=S)Nc4ccc(Br)c(F)c4)CC3)CC2)cc1` (centres unmarked) [Compound 99, 4-{1-hydroxy-2-[4-(4-methoxy-phenyl)-piperidin-1-yl]-ethyl}-piperidine-1-carbothioic acid (4-bromo-3-fluoro-phenyl)-amide]: the negative-log IC50 (pIC50) in assay [1] (setting [2]) was 5.46.
For `O=C(Nc1cc(F)cc(F)c1)N1CCC(O)(C(O)CN2CCC(c3ccc(F)cc3)CC2)CC1` (centres unmarked) [Compound 133, 4-{2-[4-(4-fluoro-phenyl)-piperidin-1-yl]-1-hydroxy-ethyl}-4-hydroxy-piperidine-1-carboxylic acid (3,5-difluoro-phenyl)-amide], at CCR2, the negative logarithm of the IC50 (pIC50) is 5.52.
As to `COc1ccc(/C=C/C(=O)N2CCC(O)(C(O)CN3CCC(c4ccc(C(F)(F)F)cc4)CC3)CC2)cc1OC` (centres unmarked) [Compound 140], on CCR2, the pIC50 was 4.81.
For `O=C(Nc1ccc(F)c(F)c1)N1CCC(O)(C(O)CN2CCC(c3ccc(C(F)(F)F)cc3)CC2)CC1` (centres unmarked) [Compound 141, 4-hydroxy-4-{1-hydroxy-2-[4-(4-trifluoromethyl-phenyl)-piperidin-1-yl]-ethyl}-piperidine-1-carboxylic acid (3,4-difluoro-phenyl)-amide], the negative-log IC50 (pIC50) on CCR2 was 5.55.
On the same count and under the same terms, next, `O=C(Nc1ccc(Cl)c(Cl)c1)N1CCC(O)(C(O)CN2CCC(c3ccc(C(F)(F)F)cc3)CC2)CC1` (centres unmarked) [Compound 143, 4-hydroxy-4-{1-hydroxy-2-[4-(4-trifluoromethyl-phenyl)-piperidin-1-yl]-ethyl}-piperidine-1-carboxylic acid (3,4-dichloro-phenyl)-amide]: 6.00.
Same read-out and setting: next, `OC(CN1CCC(c2ccc(C(F)(F)F)cc2)CC1)C1(O)CCN(C(=S)Nc2ccc(Cl)c(Cl)c2)CC1` (centres unmarked) [Compound 144, 4-hydroxy-4-{1-hydroxy-2-[4-(4-trifluoromethyl-phenyl)-piperidin-1-yl]-ethyl}-piperidine-1-carbothioic acid (3,4-dichloro-phenyl)-amide]: 5.47; `OC(CN1CCC(c2ccc(C(F)(F)F)cc2)CC1)C1(O)CCN(C(=S)Nc2cc(Cl)cc(Cl)c2)CC1` (centres unmarked) [Compound 145, 4-hydroxy-4-{1-hydroxy-2-[4-(4-trifluoromethyl-phenyl)-piperidin-1-yl]-ethyl}-piperidine-1-carbothioic acid (3,5-dichloro-phenyl)-amide]: 5.72.
One may read the inhibition as the change of the read-out against control, counted positive when it falls. In the case of `CC(C)(C)OC(=O)N1CCC(O)(C(O)CN2CCC(c3ccc(Cl)cc3)CC2)CC1` (centres unmarked) [Compound 146, 4-{2-[4-(4-chloro-phenyl)-piperidin-1-yl]-1-hydroxy-ethyl}-4-hydroxy-piperidine-1-carboxylic acid tert-butyl ester], the inhibition at 25 µM on CCR2 was 41%.
On to `Nc1ccc2[nH]cc(C3CCN(CC(O)C4CCN(C(=O)OCc5ccccc5)CC4)CC3)c2c1` (centres unmarked) [Compound 147, 4-{2-[4-(5-amino-1H-indol-3-yl)-piperidin-1-yl]-1-hydroxy-ethyl}-piperidine-1-carboxylic acid benzyl ester], for which the pIC50 at CCR2 was 5.52.
Turning to `O=C(/C=C/c1cc(F)c(F)c(F)c1)N1CCC(O)(C(O)CN2CCC(c3c[nH]c4ccc(N5CCOCC5)cc34)CC2)CC1` (centres unmarked) [Compound 148], on CCR2, the pIC50 is 5.96.
With `O=C(/C=C/c1cc(F)cc(F)c1)N1CCC(O)(C(O)CN2CCC(c3c[nH]c4ccc(N5CCOCC5)cc34)CC2)CC1` (centres unmarked) [Compound 149], at CCR2, the pIC50 is 5.89.
Take `O=C(/C=C/c1cc(C(F)(F)F)cc(C(F)(F)F)c1)N1CCC(O)(C(O)CN2CCC(c3c[nH]c4ccc(N5CCOCC5)cc34)CC2)CC1` (centres unmarked) [Compound 150]: the pIC50 at CCR2 is 5.06.
Turning to `O=C(/C=C/c1cc(F)cc(F)c1)N1CCC(O)(C(O)CN2CCC(O)(c3ccc(F)cc3)CC2)CC1` (centres unmarked) [Compound 154], on CCR2, the negative-log IC50 (pIC50) is 5.74.
Same read-out and setting: as for `O=C(Nc1cc(F)ccc1Cl)N1CCC(O)(C(O)CN2CCC(c3c[nH]c4ccc(F)cc34)CC2)CC1` (centres unmarked) [Compound 161], the figure is 5.08; as for `OC(CN1CCC(c2c[nH]c3ccc(F)cc23)CC1)C1(O)CCN(C(=S)Nc2ccc(Cl)c(Cl)c2)CC1` (centres unmarked) [Compound 162], 5.09; as for `OC(CN1CCC(c2ccc(Cl)cc2)CC1)C1(O)CCN(C(=S)Nc2cc(F)cc(F)c2F)CC1` (centres unmarked) [Compound 166, 4-{2-[4-(4-chloro-phenyl)-piperidin-1-yl]-1-hydroxy-ethyl}-4-hydroxy-piperidine-1-carbothioic acid (2,3,5-trifluoro-phenyl)-amide], 5.51.
`O=C(CCc1ccc(Cl)c(Cl)c1)N1CCC(O)(C(O)CN2CCC(c3c[nH]c4ccc(F)cc34)CC2)CC1` (centres unmarked) [Compound 168, 3-(3,4-dichloro-phenyl)-1-(4-{2-[4-(5-fluoro-1H-indol-3-yl)-piperidin-1-yl]-1-hydroxy-ethyl}-4-hydroxy-piperidin-1-yl)-propan-1-one]: at CCR2, the pIC50 is 5.57.
Consider `O=C(Cc1cccc([N+](=O)[O-])c1)N1CCC(O)(C(O)CN2CCC(c3c[nH]c4ccc(N5CCOCC5)cc34)CC2)CC1` (centres unmarked) [Compound 176, 1-(4-hydroxy-4-{1-hydroxy-2-[4-(5-morpholin-4-yl-1H-indol-3-yl)-piperidin-1-yl]-ethyl}-piperidin-1-yl)-2-(3-nitro-phenyl)-ethanone], for which the inhibition at 25 µM on CCR2 was determined as 42%.
With `O=C(Nc1ccc(F)c(F)c1)N1CCC(O)(C(O)CN2CCC(c3c[nH]c4ccc(N5CCOCC5)cc34)CC2)CC1` (centres unmarked) [Compound 179, 4-hydroxy-4-{1-hydroxy-2-[4-(5-morpholin-4 yl-1H-indol-3-yl)-piperidin-1-yl]-ethyl}-piperidine-1-carboxylic acid (3,4-difluoro-phenyl)-amide], the pIC50 at CCR2 is 5.24.
Consider `O=C(Nc1cc(F)cc(C(F)(F)F)c1)N1CCC(O)(C(O)CN2CCC(c3c[nH]c4ccc(N5CCOCC5)cc34)CC2)CC1` (centres unmarked) [Compound 180, 4-hydroxy-4-{1-hydroxy-2-[4-(5-morpholin-4-yl-1H-indol-3-yl)-piperidin-1-yl]-ethyl}-piperidine-1-carboxylic acid (3-fluoro-5-trifluoromethyl-phenyl)-amide], for which the pIC50 on CCR2 is 5.38.
`OC(CN1CCC(c2c[nH]c3ccc(N4CCOCC4)cc23)CC1)C1(O)CCN(C(=S)Nc2cc(F)cc(F)c2)CC1` (centres unmarked) [Compound 183, 4-hydroxy-4-{1-hydroxy-2-[4-(5-morpholin-4-yl-1H-indol-3-yl)-piperidin-1-yl]-ethyl}-piperidine-1-carbothioic acid (3,5-difluoro-phenyl)-amide]: the inhibition at 25 µM at CCR2 came out at 47%.
On the same count and under the same terms, next, `CC(=O)Nc1ccc2[nH]cc(C3CCN(CC(O)C4CCNCC4)CC3)c2c1` (centres unmarked) [Compound 185, N-{3-[1-(2-hydroxy-2-piperidin-4-yl-ethyl)-piperidin-4-yl]-1H-indol-5-yl}-acetamide]: 54%.
